Reference: article PMC6199744, “Development of Chemical Proteomics for the Folateome and Analysis of the Kinetoplastid Folateome” (ACS Infectious Diseases, 2018)
Read-outs that look alike come from different tables or passages of the source.

How the values were obtained:
Assay type in all cases: binding
[1] = biological target: T1, HeLa cell extract proteins (Homo sapiens, UniProt Q5R3I4)
T1 construct: endogenous in cells; host or cells: HeLa cell extract

[2] = biological target: T2, HeLa cell extract proteins (Homo sapiens, UniProt Q99613)
T2 construct: endogenous in cells; host or cells: HeLa cell extract

[3] = biological target: T3, HeLa cell extract proteins (Homo sapiens, UniProt P35573)
T3 construct: endogenous in cells; host or cells: HeLa cell extract

[4] = biological target: T4, HeLa cell extract proteins (Homo sapiens, UniProt P62979)
T4 construct: endogenous in cells; host or cells: HeLa cell extract

[5] = biological target: T5, HeLa cell extract proteins (Homo sapiens, UniProt Q9H2U2)
T5 construct: endogenous in cells; host or cells: HeLa cell extract
T5 sequence (Q9H2U2 33-334): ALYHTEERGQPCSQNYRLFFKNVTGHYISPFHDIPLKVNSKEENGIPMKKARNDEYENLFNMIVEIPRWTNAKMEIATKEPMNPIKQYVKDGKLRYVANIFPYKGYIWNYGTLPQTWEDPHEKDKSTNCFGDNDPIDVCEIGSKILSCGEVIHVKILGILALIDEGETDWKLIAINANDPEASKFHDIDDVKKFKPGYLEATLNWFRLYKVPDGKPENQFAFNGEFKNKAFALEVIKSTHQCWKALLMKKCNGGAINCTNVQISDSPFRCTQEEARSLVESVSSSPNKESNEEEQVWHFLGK

[6] = biological target: T6, HeLa cell extract proteins (Homo sapiens, UniProt Q96JN8)
T6 construct: endogenous in cells; host or cells: HeLa cell extract
T6 sequence (Q96JN8 whole entry): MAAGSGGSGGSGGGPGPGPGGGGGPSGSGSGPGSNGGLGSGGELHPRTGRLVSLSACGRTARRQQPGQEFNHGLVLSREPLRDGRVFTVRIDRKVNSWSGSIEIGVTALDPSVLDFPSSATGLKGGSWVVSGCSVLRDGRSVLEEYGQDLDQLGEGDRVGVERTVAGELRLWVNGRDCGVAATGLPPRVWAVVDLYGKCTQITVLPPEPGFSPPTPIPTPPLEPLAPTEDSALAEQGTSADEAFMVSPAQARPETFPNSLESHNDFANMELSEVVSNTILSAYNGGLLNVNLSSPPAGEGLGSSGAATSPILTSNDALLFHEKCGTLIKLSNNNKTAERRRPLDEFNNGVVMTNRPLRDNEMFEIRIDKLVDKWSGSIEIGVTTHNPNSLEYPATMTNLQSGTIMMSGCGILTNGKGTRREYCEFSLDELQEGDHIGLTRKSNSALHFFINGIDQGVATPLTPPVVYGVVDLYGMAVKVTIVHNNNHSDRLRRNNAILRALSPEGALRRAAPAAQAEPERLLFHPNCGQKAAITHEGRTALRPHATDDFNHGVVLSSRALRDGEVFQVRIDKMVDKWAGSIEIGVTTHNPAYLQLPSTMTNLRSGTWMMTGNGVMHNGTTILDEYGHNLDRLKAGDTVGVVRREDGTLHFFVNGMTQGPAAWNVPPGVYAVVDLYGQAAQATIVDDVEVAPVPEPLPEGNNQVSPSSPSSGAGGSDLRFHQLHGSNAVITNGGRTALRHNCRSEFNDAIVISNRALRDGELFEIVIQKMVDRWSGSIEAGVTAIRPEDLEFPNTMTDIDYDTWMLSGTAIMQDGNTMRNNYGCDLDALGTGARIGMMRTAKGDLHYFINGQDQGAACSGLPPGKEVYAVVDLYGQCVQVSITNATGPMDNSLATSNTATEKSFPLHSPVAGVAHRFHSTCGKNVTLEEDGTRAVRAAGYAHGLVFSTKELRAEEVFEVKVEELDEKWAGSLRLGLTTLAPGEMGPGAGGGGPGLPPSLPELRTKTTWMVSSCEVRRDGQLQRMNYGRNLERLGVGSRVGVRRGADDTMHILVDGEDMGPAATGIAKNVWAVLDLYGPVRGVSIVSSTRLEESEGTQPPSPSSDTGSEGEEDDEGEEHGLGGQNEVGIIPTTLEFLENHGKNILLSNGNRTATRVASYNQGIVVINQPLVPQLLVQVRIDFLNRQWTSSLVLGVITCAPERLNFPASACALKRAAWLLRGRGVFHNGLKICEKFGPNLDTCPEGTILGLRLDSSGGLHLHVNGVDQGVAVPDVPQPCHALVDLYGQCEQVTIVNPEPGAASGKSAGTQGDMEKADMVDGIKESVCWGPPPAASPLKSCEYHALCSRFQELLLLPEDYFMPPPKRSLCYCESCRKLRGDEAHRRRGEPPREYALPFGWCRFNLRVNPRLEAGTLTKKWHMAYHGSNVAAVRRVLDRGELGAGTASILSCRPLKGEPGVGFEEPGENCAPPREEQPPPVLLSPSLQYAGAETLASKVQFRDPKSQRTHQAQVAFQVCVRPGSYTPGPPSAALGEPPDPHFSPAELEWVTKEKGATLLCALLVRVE

[7] = biological target: T7, HeLa cell extract proteins (Homo sapiens, UniProt P04040)
T7 construct: endogenous in cells; host or cells: HeLa cell extract
T7 sequence (P04040 1-527): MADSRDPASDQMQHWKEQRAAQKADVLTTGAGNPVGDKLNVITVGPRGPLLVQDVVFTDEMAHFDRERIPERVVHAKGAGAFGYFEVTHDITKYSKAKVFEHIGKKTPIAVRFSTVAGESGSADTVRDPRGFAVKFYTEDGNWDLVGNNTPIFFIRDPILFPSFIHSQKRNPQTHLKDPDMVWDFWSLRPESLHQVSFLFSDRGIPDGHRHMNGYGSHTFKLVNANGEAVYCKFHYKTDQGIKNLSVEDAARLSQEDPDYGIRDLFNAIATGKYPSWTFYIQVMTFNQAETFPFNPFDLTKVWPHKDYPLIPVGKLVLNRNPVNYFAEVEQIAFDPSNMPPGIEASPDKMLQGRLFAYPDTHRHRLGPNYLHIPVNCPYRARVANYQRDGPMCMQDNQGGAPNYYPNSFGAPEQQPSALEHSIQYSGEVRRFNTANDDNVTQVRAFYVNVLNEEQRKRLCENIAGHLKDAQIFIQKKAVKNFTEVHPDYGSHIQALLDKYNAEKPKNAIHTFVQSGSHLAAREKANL

[8] = biological target: T8, HeLa cell extract proteins (Homo sapiens, UniProt P12277)
T8 construct: endogenous in cells; host or cells: HeLa cell extract
T8 sequence (P12277 whole entry): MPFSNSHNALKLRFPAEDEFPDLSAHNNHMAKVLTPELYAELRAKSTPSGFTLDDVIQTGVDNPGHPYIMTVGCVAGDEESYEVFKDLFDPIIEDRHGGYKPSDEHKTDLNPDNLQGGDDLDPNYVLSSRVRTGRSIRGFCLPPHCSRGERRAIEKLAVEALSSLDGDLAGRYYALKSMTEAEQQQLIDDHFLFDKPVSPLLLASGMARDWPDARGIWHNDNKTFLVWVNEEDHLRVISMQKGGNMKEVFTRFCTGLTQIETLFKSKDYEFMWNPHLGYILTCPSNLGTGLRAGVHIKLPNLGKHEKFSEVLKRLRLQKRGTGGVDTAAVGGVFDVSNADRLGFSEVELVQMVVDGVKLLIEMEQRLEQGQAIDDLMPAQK

[9] = biological target: T9, HeLa cell extract proteins (Homo sapiens, UniProt P42356)
T9 construct: endogenous in cells; host or cells: HeLa cell extract

[10] = biological target: T10, HeLa cell extract proteins (Homo sapiens, UniProt O14980)
T10 construct: endogenous in cells; host or cells: HeLa cell extract

[11] = biological target: T11, HeLa cell extract proteins (Homo sapiens, UniProt P27708)
T11 construct: endogenous in cells; host or cells: HeLa cell extract
T11 sequence (P27708 whole entry): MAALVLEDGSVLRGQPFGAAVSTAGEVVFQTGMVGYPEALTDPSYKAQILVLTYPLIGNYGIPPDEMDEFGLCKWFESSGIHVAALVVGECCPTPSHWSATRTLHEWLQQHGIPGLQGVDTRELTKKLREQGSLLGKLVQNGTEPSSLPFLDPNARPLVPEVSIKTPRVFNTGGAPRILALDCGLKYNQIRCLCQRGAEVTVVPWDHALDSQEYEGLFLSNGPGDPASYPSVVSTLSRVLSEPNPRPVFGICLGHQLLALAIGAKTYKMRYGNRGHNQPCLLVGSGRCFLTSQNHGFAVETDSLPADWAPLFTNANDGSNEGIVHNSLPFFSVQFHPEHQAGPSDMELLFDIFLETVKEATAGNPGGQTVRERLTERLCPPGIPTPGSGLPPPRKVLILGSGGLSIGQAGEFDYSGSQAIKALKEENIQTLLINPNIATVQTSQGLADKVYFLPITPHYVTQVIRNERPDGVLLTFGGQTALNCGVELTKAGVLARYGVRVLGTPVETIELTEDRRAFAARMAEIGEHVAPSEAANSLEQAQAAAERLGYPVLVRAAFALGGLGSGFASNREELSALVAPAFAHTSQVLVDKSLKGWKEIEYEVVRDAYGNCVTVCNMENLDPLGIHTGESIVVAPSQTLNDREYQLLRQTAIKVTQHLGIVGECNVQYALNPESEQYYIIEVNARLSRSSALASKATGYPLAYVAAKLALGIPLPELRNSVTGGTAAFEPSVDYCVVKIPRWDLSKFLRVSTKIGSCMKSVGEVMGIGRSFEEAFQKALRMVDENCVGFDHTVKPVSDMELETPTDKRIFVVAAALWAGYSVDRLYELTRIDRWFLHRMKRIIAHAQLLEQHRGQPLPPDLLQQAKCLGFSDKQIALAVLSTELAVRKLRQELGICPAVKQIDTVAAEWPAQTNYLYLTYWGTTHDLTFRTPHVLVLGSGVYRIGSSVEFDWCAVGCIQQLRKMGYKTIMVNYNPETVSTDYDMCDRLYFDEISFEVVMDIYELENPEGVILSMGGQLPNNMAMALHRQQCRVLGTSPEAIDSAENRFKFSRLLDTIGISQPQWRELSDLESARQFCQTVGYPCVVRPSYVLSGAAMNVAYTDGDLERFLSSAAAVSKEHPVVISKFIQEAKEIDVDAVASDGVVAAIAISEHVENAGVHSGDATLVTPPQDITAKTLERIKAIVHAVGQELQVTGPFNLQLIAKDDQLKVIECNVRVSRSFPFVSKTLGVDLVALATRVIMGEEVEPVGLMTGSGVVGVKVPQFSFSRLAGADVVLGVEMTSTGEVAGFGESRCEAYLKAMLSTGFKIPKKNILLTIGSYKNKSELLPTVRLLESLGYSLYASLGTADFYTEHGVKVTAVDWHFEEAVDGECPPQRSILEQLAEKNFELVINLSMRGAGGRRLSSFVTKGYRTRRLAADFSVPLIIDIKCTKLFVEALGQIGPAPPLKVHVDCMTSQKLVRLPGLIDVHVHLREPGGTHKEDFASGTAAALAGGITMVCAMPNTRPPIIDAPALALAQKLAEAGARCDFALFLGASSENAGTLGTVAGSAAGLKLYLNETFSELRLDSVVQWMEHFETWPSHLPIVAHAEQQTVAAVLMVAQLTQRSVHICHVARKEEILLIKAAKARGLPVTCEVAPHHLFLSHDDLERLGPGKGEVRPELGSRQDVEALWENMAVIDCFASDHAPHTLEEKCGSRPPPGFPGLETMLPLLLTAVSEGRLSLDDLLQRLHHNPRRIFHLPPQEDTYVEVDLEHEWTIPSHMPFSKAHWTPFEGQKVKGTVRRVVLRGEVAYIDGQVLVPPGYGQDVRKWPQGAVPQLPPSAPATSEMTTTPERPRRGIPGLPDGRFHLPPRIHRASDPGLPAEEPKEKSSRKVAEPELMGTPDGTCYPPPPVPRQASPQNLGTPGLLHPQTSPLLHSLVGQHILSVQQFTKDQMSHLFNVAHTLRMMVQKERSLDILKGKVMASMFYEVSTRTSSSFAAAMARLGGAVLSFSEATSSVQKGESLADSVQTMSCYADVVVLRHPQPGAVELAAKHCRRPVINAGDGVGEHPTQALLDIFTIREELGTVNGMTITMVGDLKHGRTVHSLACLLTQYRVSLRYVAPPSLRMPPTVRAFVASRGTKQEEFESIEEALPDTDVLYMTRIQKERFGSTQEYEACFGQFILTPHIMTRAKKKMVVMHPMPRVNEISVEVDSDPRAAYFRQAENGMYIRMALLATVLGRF

[12] = biological target: T12, HeLa cell extract proteins (Homo sapiens, UniProt P56589)
T12 construct: endogenous in cells; host or cells: HeLa cell extract
T12 sequence (P56589 1-373): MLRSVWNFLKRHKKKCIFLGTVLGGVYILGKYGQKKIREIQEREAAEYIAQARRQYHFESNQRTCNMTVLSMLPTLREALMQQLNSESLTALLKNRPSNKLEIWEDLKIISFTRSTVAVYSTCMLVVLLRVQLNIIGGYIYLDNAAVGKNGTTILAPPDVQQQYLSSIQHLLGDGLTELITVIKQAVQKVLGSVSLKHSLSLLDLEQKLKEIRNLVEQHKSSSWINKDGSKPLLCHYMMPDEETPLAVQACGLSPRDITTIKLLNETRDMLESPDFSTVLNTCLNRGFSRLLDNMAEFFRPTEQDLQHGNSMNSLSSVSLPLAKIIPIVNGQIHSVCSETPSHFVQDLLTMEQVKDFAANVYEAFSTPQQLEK

[13] = biological target: T13, HeLa cell extract proteins (Homo sapiens, UniProt O15260)
T13 construct: endogenous in cells; host or cells: HeLa cell extract
T13 sequence (O15260 whole entry): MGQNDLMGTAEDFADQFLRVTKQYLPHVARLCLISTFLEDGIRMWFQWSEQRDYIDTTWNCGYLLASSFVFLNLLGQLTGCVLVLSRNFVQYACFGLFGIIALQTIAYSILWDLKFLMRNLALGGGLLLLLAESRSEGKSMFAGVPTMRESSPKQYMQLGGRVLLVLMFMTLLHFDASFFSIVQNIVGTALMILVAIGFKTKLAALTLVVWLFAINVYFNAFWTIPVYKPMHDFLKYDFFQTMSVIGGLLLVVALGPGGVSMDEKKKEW

[14] = biological target: T14, HeLa cell extract proteins (Homo sapiens, UniProt P11142)
T14 construct: endogenous in cells; host or cells: HeLa cell extract

[15] = biological target: T15, HeLa cell extract proteins (Homo sapiens, UniProt Q9H1A4)
T15 construct: endogenous in cells; host or cells: HeLa cell extract

[16] = HeLa, protein AGL (PUTATIVE UNCHA[…] AGL (FRAGMENT))
[17] = HeLa, protein ANAPC1 (ANAPHASE-PROMOTING COMPLEX SUBUNIT 1)
[18] = HeLa, protein CKB (CREATINE KINASE B-TYPE.)
[19] = HeLa, protein TTC38 (HYPOTHETICAL PROTEIN LOC55020)

T1 sequence (Q5R3I4 whole entry): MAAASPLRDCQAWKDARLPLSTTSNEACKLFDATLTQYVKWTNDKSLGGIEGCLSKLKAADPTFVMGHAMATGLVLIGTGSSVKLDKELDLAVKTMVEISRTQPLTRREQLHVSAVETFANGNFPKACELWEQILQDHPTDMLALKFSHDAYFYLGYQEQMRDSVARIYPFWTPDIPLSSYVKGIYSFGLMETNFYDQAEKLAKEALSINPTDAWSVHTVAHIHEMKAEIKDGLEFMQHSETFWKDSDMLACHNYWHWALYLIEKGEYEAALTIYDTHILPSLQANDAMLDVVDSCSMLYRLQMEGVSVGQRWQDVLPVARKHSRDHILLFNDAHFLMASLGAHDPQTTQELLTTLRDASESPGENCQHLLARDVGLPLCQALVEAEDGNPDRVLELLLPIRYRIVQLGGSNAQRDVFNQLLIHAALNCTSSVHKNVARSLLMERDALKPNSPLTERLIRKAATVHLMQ

Compound	fold changes relative to vehicle control ([2]; protein EIF3C, HeLa)	fold changes relative to vehicle control [3, 16]	fold changes relative to vehicle control [4]	fold changes relative to vehicle control ([5]; HeLa, protein PPA2)	fold changes relative to vehicle control ([6]; HeLa, protein KIAA1787)	fold changes relative to vehicle control ([7]; protein CAT, HeLa)	fold changes relative to vehicle control ([8]; HeLa, protein CKB)	fold changes relative to vehicle control ([9]; protein PI4KA, HeLa)	fold changes relative to vehicle control ([10]; HeLa, captured protein XPO1)	fold changes relative to vehicle control ([11]; protein CAD, HeLa)	fold changes relative to vehicle control ([12]; HeLa, captured protein PEX3)	fold changes relative to vehicle control ([13]; HeLa, captured protein SURF4)	fold changes relative to vehicle control ([14]; HeLa, captured protein HSPA8)	fold changes relative to vehicle control [15, 17]	fold changes relative to vehicle control ([1]; HeLa, protein TTC38)	fold changes relative to vehicle control ([3]; HeLa, protein AGL)	fold changes relative to vehicle control ([4]; protein RPS27A, HeLa)	fold changes relative to vehicle control ([5]; protein PPA2, HeLa)	fold changes relative to vehicle control ([6]; protein KIAA1787, HeLa)	fold changes relative to vehicle control ([7]; captured protein CAT, HeLa)	other results
Nc1nc2c(c(=O)[nH]1)N(C=O)C(CNc1ccc(C(=O)N[C@@H](CCC(=O)O)C(=O)O)cc1)CN2 (stereo partly drawn) [LEU, leucovorin]	1.02	1.19	1.29	1.16	1.16	0.87	1.01	0.82	0.92	1.34	1.02	0.86	1.07	1.09	–	–	–	–	–	–	fold changes relative to vehicle control ([1]; HeLa, protein TTC38 (HY[…] LOC55020)): 1.03
Nc1nc2[nH]cc(CCc3ccc(C(=O)N[C@@H](CCC(=O)O)C(=O)O)cc3)c2c(=O)[nH]1 [PTX, pemetrexed]	–	–	1.29	–	–	–	–	–	–	–	–	–	–	–	–	–	–	–	–	–	fold changes relative to vehicle control [1]: 0.93; fold changes relative to vehicle control [2]: 0.94; fold changes relative to vehicle control [3]: 1.1; fold changes relative to vehicle control [5]: 1.05; fold changes relative to vehicle control [6]: 1.07; fold changes relative to vehicle control [7]: 0.88; fold changes relative to vehicle control [8]: 1.11; fold changes relative to vehicle control [9]: 0.73; fold changes relative to vehicle control [10]: 0.86; fold changes relative to vehicle control [11]: 0.52; fold changes relative to vehicle control [12]: 0.95; fold changes relative to vehicle control [13]: 0.9; fold changes relative to vehicle control [14]: 0.99; fold changes relative to vehicle control [15]: 1.1
CCCCCCOc1ccc(Cc2cnc(N)nc2N)cc1 [compound 1]	1.1	–	–	–	–	–	–	–	–	–	–	–	–	–	1	1.05	1.24	1.04	1.03	0.77	fold changes relative to vehicle control [8, 18]: 1.55 fold; fold changes relative to vehicle control ([9]; captured protein PI4KA, HeLa): 0.71; fold changes relative to vehicle control ([10]; HeLa, protein XPO1): 0.99; fold changes relative to vehicle control ([11]; captured protein CAD, HeLa): 1.1; fold changes relative to vehicle control ([12]; HeLa, protein PEX3): 0.94; fold changes relative to vehicle control ([13]; captured protein SURF4, HeLa): 0.9; fold changes relative to vehicle control ([14]; protein HSPA8, HeLa): 0.99; fold changes relative to vehicle control ([15]; HeLa, protein ANAPC1): 1.05
CCCCCCOc1cccc(Cc2cnc(N)nc2N)c1 [compound 2]	1.19	–	–	–	–	–	–	–	–	–	–	–	–	–	0.68	1.08	1.5	1.59	0.98	1.03	fold changes relative to vehicle control [8, 18]: 2.55 fold; fold changes relative to vehicle control ([9]; captured protein PI4KA, HeLa): 1.14; fold changes relative to vehicle control ([10]; HeLa, protein XPO1): 1.09; fold changes relative to vehicle control ([11]; captured protein CAD, HeLa): 1.01; fold changes relative to vehicle control ([12]; HeLa, protein PEX3): 0.93; fold changes relative to vehicle control ([13]; captured protein SURF4, HeLa): 1; fold changes relative to vehicle control ([14]; protein HSPA8, HeLa): 1.11; fold changes relative to vehicle control ([15]; HeLa, protein ANAPC1): 1.15
Nc1nc2cccc(-c3ccccc3)c2n1Cc1ccc(Cl)c(Cl)c1 [compound 3]	1.08	–	–	–	–	–	–	–	–	–	–	–	–	–	1	1.13	1.01	0.97	1.09	0.78	fold changes relative to vehicle control [8, 18]: 0.92 fold; fold changes relative to vehicle control ([9]; captured protein PI4KA, HeLa): 0.77; fold changes relative to vehicle control ([10]; HeLa, protein XPO1): 1.03; fold changes relative to vehicle control ([11]; captured protein CAD, HeLa): 1.14; fold changes relative to vehicle control ([12]; HeLa, protein PEX3): 0.92; fold changes relative to vehicle control ([13]; captured protein SURF4, HeLa): 1.03; fold changes relative to vehicle control ([14]; protein HSPA8, HeLa): 1; fold changes relative to vehicle control ([15]; HeLa, protein ANAPC1): 1.21
NCCOCCOCC(=O)Nc1nc2ncc(CNc3ccc(C(=O)NC(CCC(=O)O)C(=O)O)cc3)nc2c(=O)[nH]1 (stereo not drawn) [compound 6]	1.02	1.09	–	1.24	1.11	0.94	1.23	0.94	0.93	1.18	1	0.95	0.98	1.1	–	–	–	–	–	–	fold changes relative to vehicle control [1, 19]: 0.89; fold changes relative to vehicle control ([4]; HeLa, protein RPS27A (UBIQUITIN AND RIBOSOMAL PROTEIN S27A PRECURSOR)): 1.51
NCCCNc1ccc(C(=O)NC(CCC(=O)O)C(=O)O)cc1 (stereo not drawn) [compound 7]	0.88	1.17	1.22	1.02	1.21	1.39	0.93	1.02	0.94	1.3	0.97	0.92	0.99	1.18	–	–	–	–	–	–	fold changes relative to vehicle control [1, 19]: 0.99
